Values joined by “and” are separate entries in the source; they are usually repeats but may differ in a detail not shown here. Identical values can stand only once. Like-named read-outs stand apart in the source and are kept apart here.
How the values were obtained:
AgifOBP9 [1] = molecular target: T1, AgifOBP9 (Aphidius gifuensis, UniProt A0A3Q9EL79, L121S); assay: Fluorescence competitive binding assay (1-NPN displacement) with recombinant AgifOBP9; conditions: for Ki: Tris-HCl pH 7.4, Ki = [IC50]/(1+[1-NPN]/K1-NPN), means ± SD, three replicates
Method: (§1) Fluorescence intensity was recorded in a right angle configuration on a Lengguang 970CRT spectrofluorimeter (Shanghai Jingmi, China) at room temperature using a 1 cm light path fluorimeter quartz cuvette. A slit width of 10 nm was selected for both excitation and emission. The measured fluorescence intensities were corrected for both blank signals due to protein emission and scattered excitation light. The spectral data were processed using the software 970CRT 2.0l. Fluorescence binding experiments were conducted in […] Tris-HCl buffer, pH 7.4, at room temperature. The binding affinity for N-phenyl-1-naphthylamine (1-NPN) was determined by adding aliquots of a 1 mM stock solution of 1-NPN dissolved in spectrophotometric grade methanol into a 2 μM protein sample. The fluorescence of 1-NPN was excited at 337 nm, and emission was recorded between 350 and 500 nm. Spectra were recorded with a high-speed scan. All ligands used in competitive experiments were dissolved in spectrophotometric grade methanol. In competition assays, aliquots of the competing ligands were added into a 2 μM protein solution in the presence of a given concentration of 1-NPN. To estimate the binding affinities of each AgifOBP for a variety of different ligands, we monitored the decrease in 1-NPN fluorescence due to the ability of different odorants to displace 1-NPN and determined the Ki value for each compound. To determine the dissociation constants, the intensity values corresponding to the maximum fluorescence emissions were plotted against the cumulative 1-NPN concentration. The amount of bound ligand was calculated from the fluorescence intensity values by assuming that the protein was 100% active, with a stoichiometry of 1:1 protein: ligand at saturation. The curves were linearized using Scatchard plots. The value of K1-NPN was estimated on a direct plot by nonlinear regression with an equation corresponding to a single binding site using Prism 7 (GraphPad Software, Inc., United States), and the IC50 was defined as the concentration of a competitor that caused a 50% reduction in fluorescence intensity. The dissociation constants of the inhibitors (Ki) were calculated according to the formula Ki = [IC50]/(1+[1-NPN]/K1-NPN), in which [1-NPN] represents the free 1-NPN concentration and K1-NPN represents the dissociation constant for AgifOBPs/1-NPN ([Ban et al., 2003]; [Zhong et al., 2012]; [Sun et al., 2016]; [Fan et al., 2017]; [Qin et al., 2020]; [Wang et al., 2021b]). All fluorescence competitive binding assays were performed in three independent replicates, and Ki dates are present as means ± SD.
(§2) FIGURE 5 Expression and binding properties of AgifOBP7 and AgifOBP9 with candidate ligands. (A) Expression and purification of AgifOBP7, (B) Expression and purification of AgifOBP9. Line M: molecular weight PR 1910 (11–180 KDa) Marker, 11, 17, 25, 35, 48, 63, 75, 100, 135, 180 KDa; IN: Induced pET-28a (+)/AgifOBP7/9; Super: pET-28a (+)/AgifOBP7/9 Supernatant; IB: pET-28a (+)/AgifOBP7/9 Inclusion body; Pur: Purified pET-28a (+)/AgifOBP7/9 without His-tag. (C,D) Binding curves of AgifOBP7 and AgifOBP9 with N-phenyl-1-naphthylamine (1-NPN) in 50 mM Tris-HCl buffer (pH 7.4). (E,F) Competitive binding curves of AgifOBP7 and AgifOBP9 to components of aphid alarm pheromones ((E)-beta-farnesene, (-)-α-pinene, (-)-β-pinene, (+)-limonene, (E)-beta-farnesene derivative (CAU-II-11); aphid sexual pheromone (4aSR 7SR 7aRS)-nepetalactone, the volatiles of wheat green leaf (cis-3-hexen-1-ol) and aphid induced plant main volatiles (methyl salicylate, 6-methyl-5-hepten-2-one). A mixture of the recombinant protein and N-phenyl-1-naphthylamine (1-NPN) in 50 mM Tris-HCl buffer (pH 7.4) at the concentration of 2 μM was titrated with 1 mM solutions of each competing ligand to a final concentration range of 2–16 μM. Fluorescence values are presented as percent of the values in the absence of competitor. Date are the means ± SD of three independent experiments.

AgifOBP7 [2] = molecular target: T2, AgifOBP7 (Aphidius gifuensis, UniProt A0A3S9LWE5); assay: Fluorescence competitive binding assay (1-NPN displacement) with recombinant AgifOBP7; conditions: for binding to AgifOBP7 in words: fluorescence competitive binding assay
Method: as §1, §2

AgifOBP7 [3] = molecular target: T2, AgifOBP7; assay: Binding of fluorescent probe 1-NPN to AgifOBP7; conditions: 2 μM protein, 50 mM Tris-HCl pH 7.4; read-out: dissociation constant of AgifOBP7/1-NPN complex
Method: (§3) Fluorescence intensity was recorded in a right angle configuration on a Lengguang 970CRT spectrofluorimeter (Shanghai Jingmi, China) at room temperature using a 1 cm light path fluorimeter quartz cuvette. A slit width of 10 nm was selected for both excitation and emission. The measured fluorescence intensities were corrected for both blank signals due to protein emission and scattered excitation light. The spectral data were processed using the software 970CRT 2.0l. Fluorescence binding experiments were conducted in […] Tris-HCl buffer, pH 7.4, at room temperature. […] The fluorescence of 1-NPN was excited at 337 nm, and emission was recorded between 350 and 500 nm. Spectra were recorded with a high-speed scan. […] To estimate the binding affinities of each AgifOBP for a variety of different ligands, we monitored the decrease in 1-NPN fluorescence due to the ability of different odorants to displace 1-NPN and determined the Ki value for each compound. To determine the dissociation constants, the intensity values corresponding to the maximum fluorescence emissions were plotted against the cumulative 1-NPN concentration. The amount of bound ligand was calculated from the fluorescence intensity values by assuming that the protein was 100% active, with a stoichiometry of 1:1 protein: ligand at saturation. […]

AgifOBP9 [4] = molecular target: T1, AgifOBP9; assay: Binding of fluorescent probe 1-NPN to AgifOBP9; conditions: 2 μM protein, 50 mM Tris-HCl pH 7.4; read-out: dissociation constant of AgifOBP9/1-NPN complex
Method: as §3

[5] = displacement of 1-NPN, 2 μM protein, Tris-HCl pH 7.4, room temperature, read-out: OBP9 IC50
[6] = displacement of 1-NPN, 2 μM protein, read-out: OBP9 Ki
[7] = displacement of 1-NPN, 2 μM protein, Tris-HCl pH 7.4, room temperature, read-out: OBP7 IC50
[8] = displacement of 1-NPN, 2 μM protein, Tris-HCl pH 7.4, Ki = [IC50]/(1+[1-NPN]/K1-NPN), means ± SD, three replicates, read-out: OBP7 Ki
[9] = OBP9 Ki, displacement of 1-NPN, 2 μM protein

T1 sequence (A0A3Q9EL79 entry or part of it L121S): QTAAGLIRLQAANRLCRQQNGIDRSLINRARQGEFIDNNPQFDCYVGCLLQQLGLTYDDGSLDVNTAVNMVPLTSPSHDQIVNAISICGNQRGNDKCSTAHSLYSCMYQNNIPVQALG
T2 sequence (A0A3S9LWE5 entry or part of it): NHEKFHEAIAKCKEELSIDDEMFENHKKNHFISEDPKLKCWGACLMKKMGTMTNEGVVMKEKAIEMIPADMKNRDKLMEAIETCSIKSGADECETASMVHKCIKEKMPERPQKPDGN

Compound	IC50 (AgifOBP9 [1]; [5]) [µM]	Ki (AgifOBP9 [1]; [6]) [µM]	IC50 (AgifOBP7 [2]; [7]) [µM]	Ki (AgifOBP7 [2]; [8]) [µM]	IC50 (AgifOBP9 [1]) [µM]	Ki (AgifOBP9 [1]; [9])	IC50 (AgifOBP7 [2]) [µM]	Ki (AgifOBP7 [2]) [µM]	binding to AgifOBP7 in words (AgifOBP7 [2])	also measured
CC1=COC(=O)[C@H]2[C@@H]1CC[C@@H]2C [(4aSR 7SR 7aRS)-Nepetalactone]	9.03 ± 0.31	2.33 ± 0.08	> 30	16.1 ± 3.49	–	–	–	–	–	Ki (AgifOBP9 [1]; displacement of 1-NPN, 2 μM protein, listed as (4aSR 7SR 7aRS)-nepetalactone, read-out: OBP9 Ki): < 10 µM
CC(=O)CCC=C(C)C [6-Methyl-5-hepten-2-one]	–	–	–	–	22.3 ± 3.38	< 10 µM and 5.76 µM	> 30	> 30	not much	–
c1ccc(Nc2cccc3ccccc23)cc1 [1-NPN, N-phenyl-1-naphthylamine]	–	–	–	–	–	–	–	–	–	Kd (AgifOBP7 [3]): 1.69 ± 0.27 µM; Kd (AgifOBP9 [4]): 0.69 ± 0.24 µM
C=CC(=C)CC/C=C(\C)CCC=C(C)C [(E)-β-Farnesene]	17.8 ± 1.69	4.6 ± 0.43	> 30	20.3 ± 1.99	–	–	–	–	–	Ki (AgifOBP9 [1]; displacement of 1-NPN, 2 μM protein, listed as EBF, read-out: OBP9 Ki): < 10 µM
COC(=O)c1ccccc1O [Methyl salicylate]	–	–	–	–	13.3 ± 2.99	< 10 µM and 3.43 µM	> 30	> 30	not much	–
CC/C=C\CCO [cis-3-Hexenol]	–	–	–	–	17 ± 0.33	< 10 µM and 4.39 µM	> 30	> 30	not much	–
C=C1CCC2CC1C2(C)C (stereo not drawn) [(-)-β-Pinene]	11.9 ± 1.27	3.06 ± 0.33	> 30	> 30	–	–	–	–	not much	Ki (AgifOBP9 [1]; displacement of 1-NPN, 2 μM protein, listed as (-)-β-pinene, read-out: OBP9 Ki): < 10 µM
C=C(C)C1CC=C(C)CC1 (single isomer, unassigned; (+)) [(+)-Limonene]	12.8 ± 0.25	3.32 ± 0.06	> 30	> 30	–	–	–	–	not much	Ki (AgifOBP9 [1]; displacement of 1-NPN, 2 μM protein, listed as (+)-limonene, read-out: OBP9 Ki): < 10 µM
COc1cccc(C(=O)OC/C=C(\C)CCC=C(C)C)c1O [CAU-II-11, (E)-3,7-dimethylocta-2,6-dien-1-yl-2-hydroxy-3-methoxybenzoate]	–	–	–	–	4.15 ± 0.33	1.07 ± 0.08 µM	18.6 ± 1.73	8.5 ± 0.73	–	–
CC1=CCC2CC1C2(C)C (stereo not drawn) [(-)-α-Pinene]	24.1 ± 3.42	6.22 ± 0.88	> 30	> 30	–	–	–	–	not much	Ki (AgifOBP9 [1]; displacement of 1-NPN, 2 μM protein, listed as (-)-α-pinene, read-out: OBP9 Ki): < 10 µM

— PMC9115719, “Spatial Expression Analysis of Odorant Binding Proteins in Both Sexes of the Aphid Parasitoid Aphidius gifuensis and Their Ligand Binding Properties” (Frontiers in Physiology, 2022)
